Measured values as given in PubChem BioAssay (NCI).
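How tested: cells in 96-well plates exposed to compound for 48 hours at five concentrations. GI50: concentration for 50% inhibition of growth. TGI denotes the concentration required for complete inhibition of growth.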

How the values were obtained:
Assay in all cases: NCI-60 cell line screen, 48 h
ACHN renal = system: ACHN renal
NCI-H522 lung = system: NCI-H522 lung
SF-268 CNS = system: SF-268 CNS
NCI/ADR-RES ovarian = system: NCI/ADR-RES ovarian
A498 renal = system: A498 renal
SK-OV-3 ovarian = system: SK-OV-3 ovarian
MCF7 breast = system: MCF7 breast
LOX IMVI melanoma = system: LOX IMVI melanoma
BT-549 breast = system: BT-549 breast
HCT-116 colon = system: HCT-116 colon
SF-539 CNS = system: SF-539 CNS
COLO 205 colon = system: COLO 205 colon
OVCAR-4 ovarian = system: OVCAR-4 ovarian
SW-620 colon = system: SW-620 colon
M14 melanoma = system: M14 melanoma
MOLT-4 leukemia = system: MOLT-4 leukemia
SF-295 CNS = system: SF-295 CNS
SNB-19 CNS = system: SNB-19 CNS
NCI-H226 lung = system: NCI-H226 lung
SK-MEL-2 melanoma = system: SK-MEL-2 melanoma
SN12C renal = system: SN12C renal
HS 578T breast = system: HS 578T breast
OVCAR-3 ovarian = system: OVCAR-3 ovarian
SR leukemia = system: SR leukemia
HL-60(TB) leukemia = system: HL-60(TB) leukemia
U251 CNS = system: U251 CNS
UACC-62 melanoma = system: UACC-62 melanoma
HT29 colon = system: HT29 colon
NCI-H23 lung = system: NCI-H23 lung
T-47D breast = system: T-47D breast
OVCAR-5 ovarian = system: OVCAR-5 ovarian
K-562 leukemia = system: K-562 leukemia
UO-31 renal = system: UO-31 renal
HOP-62 NSCLC = system: HOP-62 NSCLC
CCRF-CEM leukemia = system: CCRF-CEM leukemia
OVCAR-8 ovarian = system: OVCAR-8 ovarian
KM12 colon = system: KM12 colon
MALME-3M melanoma = system: MALME-3M melanoma
HCC-2998 colon = system: HCC-2998 colon
IGROV1 ovarian = system: IGROV1 ovarian
DU-145 prostate = system: DU-145 prostate
CAKI-1 renal = system: CAKI-1 renal
A549 NSCLC = system: A549 NSCLC
MDA-MB-231 breast = system: MDA-MB-231 breast
SK-MEL-28 melanoma = system: SK-MEL-28 melanoma
MDA-MB-435 = system: MDA-MB-435
HCT-15 colon = system: HCT-15 colon
786-0 renal = system: 786-0 renal
HOP-92 NSCLC = system: HOP-92 NSCLC
NCI-H460 lung = system: NCI-H460 lung
RPMI-8226 leukemia = system: RPMI-8226 leukemia
PC-3 prostate = system: PC-3 prostate
SNB-75 CNS = system: SNB-75 CNS
UACC-257 melanoma = system: UACC-257 melanoma
RXF 393 renal = system: RXF 393 renal
TK-10 renal = system: TK-10 renal
SK-MEL-5 melanoma = system: SK-MEL-5 melanoma
EKVX NSCLC = system: EKVX NSCLC

CCOC(=O)c1ccc2c(c1)c1c(C)c3ccncc3c(C)c1n2C
GI50 (ACHN renal): 265 nM
TGI (ACHN renal): 1320 nM
GI50 (NCI-H522 lung): 564 nM
TGI (NCI-H522 lung): 2550 nM
GI50 (SF-268 CNS): 846 nM
TGI (SF-268 CNS): 3480 nM
GI50 (NCI/ADR-RES ovarian): 470 nM
TGI (NCI/ADR-RES ovarian): 2900 nM
GI50 (A498 renal): 664 nM
TGI (A498 renal): 2050 nM
GI50 (SK-OV-3 ovarian): 721 nM
TGI (SK-OV-3 ovarian): 2990 nM
GI50 (MCF7 breast): 346 nM
TGI (MCF7 breast): 1750 nM
GI50 (LOX IMVI melanoma): 349 nM
TGI (LOX IMVI melanoma): 1620 nM
GI50 (BT-549 breast): 1270 nM
TGI (BT-549 breast): 3700 nM
GI50 (HCT-116 colon): 287 nM
TGI (HCT-116 colon): 1380 nM
GI50 (SF-539 CNS): 467 nM
TGI (SF-539 CNS): 1920 nM
GI50 (COLO 205 colon): 350 nM
TGI (COLO 205 colon): 1820 nM
GI50 (OVCAR-4 ovarian): 745 nM
TGI (OVCAR-4 ovarian): 2550 nM
GI50 (SW-620 colon): 322 nM
TGI (SW-620 colon): 1800 nM
GI50 (M14 melanoma): 505 nM
TGI (M14 melanoma): 2080 nM
GI50 (MOLT-4 leukemia): 393 nM
TGI (MOLT-4 leukemia): 3190 nM
GI50 (SF-295 CNS): 516 nM
TGI (SF-295 CNS): 4630 nM
GI50 (SNB-19 CNS): 441 nM
TGI (SNB-19 CNS): 2320 nM
GI50 (NCI-H226 lung): 260 nM
TGI (NCI-H226 lung): 1450 nM
GI50 (SK-MEL-2 melanoma): 897 nM
TGI (SK-MEL-2 melanoma): 2580 nM
GI50 (SN12C renal): 457 nM
TGI (SN12C renal): 2310 nM
GI50 (HS 578T breast): 543 nM
TGI (HS 578T breast): 3240 nM
GI50 (OVCAR-3 ovarian): 692 nM
TGI (OVCAR-3 ovarian): 2620 nM
GI50 (SR leukemia): 269 nM
TGI (SR leukemia): 3950 nM
GI50 (HL-60(TB) leukemia): 1160 nM
TGI (HL-60(TB) leukemia): 6080 nM
GI50 (U251 CNS): 468 nM
TGI (U251 CNS): 1980 nM
GI50 (UACC-62 melanoma): 378 nM
TGI (UACC-62 melanoma): 1730 nM
GI50 (HT29 colon): 362 nM
TGI (HT29 colon): 1780 nM
GI50 (NCI-H23 lung): 376 nM
TGI (NCI-H23 lung): 1980 nM
GI50 (T-47D breast): 855 nM
TGI (T-47D breast): 3500 nM
GI50 (OVCAR-5 ovarian): 796 nM
TGI (OVCAR-5 ovarian): 2840 nM
GI50 (K-562 leukemia): 413 nM
TGI (K-562 leukemia): 2530 nM
GI50 (UO-31 renal): 165 nM
TGI (UO-31 renal): 1400 nM
GI50 (HOP-62 NSCLC): 408 nM
TGI (HOP-62 NSCLC): 2160 nM
GI50 (CCRF-CEM leukemia): 851 nM
TGI (CCRF-CEM leukemia): 8640 nM
GI50 (OVCAR-8 ovarian): 436 nM
TGI (OVCAR-8 ovarian): 3250 nM
GI50 (KM12 colon): 517 nM
TGI (KM12 colon): 2580 nM
GI50 (MALME-3M melanoma): 375 nM
TGI (MALME-3M melanoma): 1680 nM
GI50 (HCC-2998 colon): 1090 nM
TGI (HCC-2998 colon): 2950 nM
GI50 (IGROV1 ovarian): 211 nM
TGI (IGROV1 ovarian): 1460 nM
GI50 (DU-145 prostate): 546 nM
TGI (DU-145 prostate): 2330 nM
GI50 (CAKI-1 renal): 287 nM
TGI (CAKI-1 renal): 1490 nM
GI50 (A549 NSCLC): 382 nM
TGI (A549 NSCLC): 1880 nM
GI50 (MDA-MB-231 breast): 622 nM
TGI (MDA-MB-231 breast): 2400 nM
GI50 (SK-MEL-28 melanoma): 539 nM
TGI (SK-MEL-28 melanoma): 1900 nM
GI50 (MDA-MB-435): 649 nM
TGI (MDA-MB-435): 1960 nM
GI50 (HCT-15 colon): 381 nM
TGI (HCT-15 colon): 1650 nM
GI50 (786-0 renal): 642 nM
TGI (786-0 renal): 2030 nM
GI50 (HOP-92 NSCLC): 303 nM
TGI (HOP-92 NSCLC): 2360 nM
GI50 (NCI-H460 lung): 680 nM
TGI (NCI-H460 lung): 3460 nM
GI50 (RPMI-8226 leukemia): 440 nM
TGI (RPMI-8226 leukemia): 2440 nM
GI50 (PC-3 prostate): 486 nM
TGI (PC-3 prostate): 2150 nM
GI50 (SNB-75 CNS): 380 nM
TGI (SNB-75 CNS): 1950 nM
GI50 (UACC-257 melanoma): 472 nM
TGI (UACC-257 melanoma): 2600 nM
GI50 (RXF 393 renal): 349 nM
TGI (RXF 393 renal): 1670 nM
GI50 (TK-10 renal): 1150 nM
TGI (TK-10 renal): 3050 nM
GI50 (SK-MEL-5 melanoma): 384 nM
TGI (SK-MEL-5 melanoma): 1510 nM
GI50 (EKVX NSCLC): 384 nM
TGI (EKVX NSCLC): 2370 nM
